The text below walks through data of US11149008B2, “Sulfamide derivatives and preparation method and use thereof” (HitGen Ltd., priority 2015, dated 2021).

The target in one experiment is T1, HDAC 6 (Homo sapiens, UniProt Q9UBN7).
T1 construct: purchased BPS Bioscience #50076
T1 sequence (Q9UBN7 1-1215): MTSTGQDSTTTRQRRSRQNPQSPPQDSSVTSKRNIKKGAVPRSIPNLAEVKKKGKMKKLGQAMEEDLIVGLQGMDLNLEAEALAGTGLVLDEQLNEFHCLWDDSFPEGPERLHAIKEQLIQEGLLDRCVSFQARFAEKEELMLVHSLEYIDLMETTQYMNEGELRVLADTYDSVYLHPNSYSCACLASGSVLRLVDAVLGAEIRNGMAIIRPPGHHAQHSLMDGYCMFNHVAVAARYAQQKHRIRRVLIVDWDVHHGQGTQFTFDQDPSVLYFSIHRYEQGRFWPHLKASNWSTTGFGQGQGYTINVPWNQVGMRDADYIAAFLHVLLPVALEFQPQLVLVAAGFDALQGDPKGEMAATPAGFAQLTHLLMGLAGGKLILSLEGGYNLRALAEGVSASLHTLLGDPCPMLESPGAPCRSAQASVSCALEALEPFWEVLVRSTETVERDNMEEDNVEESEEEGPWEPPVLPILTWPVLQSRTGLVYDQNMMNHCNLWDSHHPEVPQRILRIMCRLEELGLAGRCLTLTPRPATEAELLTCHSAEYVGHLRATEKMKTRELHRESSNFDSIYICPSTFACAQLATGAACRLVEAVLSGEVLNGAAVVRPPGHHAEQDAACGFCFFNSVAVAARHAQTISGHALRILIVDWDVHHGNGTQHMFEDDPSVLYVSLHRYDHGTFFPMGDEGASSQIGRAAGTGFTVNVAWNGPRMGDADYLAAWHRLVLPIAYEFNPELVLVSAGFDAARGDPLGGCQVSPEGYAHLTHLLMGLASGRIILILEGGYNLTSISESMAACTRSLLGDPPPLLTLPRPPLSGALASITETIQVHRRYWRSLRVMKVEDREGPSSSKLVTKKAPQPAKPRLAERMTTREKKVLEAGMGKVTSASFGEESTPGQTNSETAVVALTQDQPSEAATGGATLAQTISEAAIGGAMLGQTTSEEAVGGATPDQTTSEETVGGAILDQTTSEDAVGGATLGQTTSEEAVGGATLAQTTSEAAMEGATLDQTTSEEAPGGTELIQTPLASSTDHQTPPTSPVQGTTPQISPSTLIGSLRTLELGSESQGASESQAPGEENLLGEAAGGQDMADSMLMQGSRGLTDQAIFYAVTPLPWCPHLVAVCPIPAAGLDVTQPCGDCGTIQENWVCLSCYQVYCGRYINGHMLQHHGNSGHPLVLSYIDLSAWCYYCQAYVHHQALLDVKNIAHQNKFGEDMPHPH
The experiment can be described thus: Enzyme activity detection of histone deacetylase 6 (fluorogenic substrate deacetylation). The format is biochemical. The following applies: 0.35 ng/μL HDAC 6, 20 μM substrate, 30 min at 37° C.; IC50 class. The source says: (§1) During the deacetylation detection of a substrate, the HDAC inhibition activity of the compound of the present invention was detected.
A: Enzyme Activity Detection of Histone Deacetylase 6 (#50076, BPS Bioscience)
(§2) Acetyl on the substrate was removed by the HDAC 6, so that the substrate was activated, and the developing liquid added subsequently could act on the substrate to release the fluorescent group. The size of the fluorescence signal reflected the activity of the HDAC 6. The IC50 detection method for this enzyme was disclosed in Chuping Xu, Elisabetta Soragni Improved Histone Deacetylase Inhibitors as Therapeutics for the Neurdegenerative Disease Friedreich's Ataxia: A New Synthetic Route. The total reaction system (100 μL/well) contained 0.35 ng/μL of HDAC 6, 20 μM of the substrate and the compound in different concentrations. The reaction system was incubated for 30 min at 37° C., and the fluorescence signal was then measured. The inhibition effect of the compound was determined from the obtained data, a concentration response curve was obtained by using the inhibition effect and the concentration of the compound, and the value of IC50 was fitted according to a four-parameter model.
(§3) The activities of the compounds prepared in the embodiments against the histone deacetylases 1, 3 and 6 (i.e., HDAC 1, HDAC 3 and HDAC 6) were detected by the above methods, and the test results were shown in Table 2, where the measurements of IC50 of the compounds were classified according to the following description: […]

A further experiment concerns HepG2 cells. Put plainly: Cell growth inhibition measurement (CCK-8), HepG2. The format is cell-based. The following applies: Homo sapiens, HepG2, 72 h, highest EC50 measured during one or multiple operations, read-out: Inhibition activity against cancer cells, HepG2 (EC50). The source says: (§4) A HepG2 cell strain and an HCT-116 cell strain were purchased from Shanghai Institutes for Biological Sciences; a DMEM high-sugar culture medium and an MEM culture medium were purchased from Hyclone; fetal calf serum was purchased from Gibco; trypsin was purchased from Invitrogen Shanghai; a CCK-8 kit was purchased from Beyotime Institute of Biotechnology; and, the remaining cell culture mediums and other consumables were purchased from Corning China.
(§5) HepG2 cells and HCT-116 cells in the logarithmic growth phase were digested by trypsin. After the counting of uniform cell suspension, the cell density was adjusted as 1500 cells/well by a culture medium containing 10% serum. The cells were re-inoculated to a 96-well cell culture plate, and cultured to a volume of 200 μL at 37° C. in an incubator containing 5% CO2. The cells could be tested after being cultured for 24 h.
(§6) The cells cultured for 24 h were taken out from the incubator. The culture liquid in the well plate was sucked out, and 200 μL of compound solution prepared in the culture medium containing 10% fetal calf serum was added in each well. Five parallel mediums were provided for each concentration, and a DMSO culture medium was used as negative control. The culture mediums were cultured for 72 h at 37° C. in an incubator containing 5% CO2, and CCK-8 detection was performed.
(§7) A serum-free culture medium and CCK-8 solution were prepared, and CCK-8 working solution was prepared at a ratio of 10:1 (this process should be performed in dark place).
(§8) The cells cultured for 72 h were taken out from the incubator. The culture liquid in the well plate was sucked out, and 120 μL of the CCK-8 working solution was added in each well. A well plate without cells was also added with 120 μL of the CCK-8 working solution to serve as blank control. The well plates were cultured for 1 h at 37° C. in an incubator containing 5% CO2 (this process should be performed in dark place).
(§9) The well plates were taken out from the incubator, 100 μL of solution in each well was sucked out and added in a new 96-well plate, and the absorbance was measured at 450 nm (this process should be performed in dark place).
(§10) where Tx is the absorbance of the CCK-8 after the compound acts for 72 h;
(§11) C is the absorbance of the CCK-8 after the negative control wells are cultured for 72 h; and
(§12) B is the absorbance of the CCK-8 in the blank control wells.
(§13) The test results of the compounds prepared according to the embodiments during the measurement are shown in Table 3, wherein the measured highest EC50 of the compounds during one operation or multiple operations is classified according to the following description: […]

The target in the next experiment is T2, HDAC 3 (Homo sapiens, UniProt O15379).
T2 construct: purchased BPS Bioscience #50003
Put plainly: Enzyme activity detection of histone deacetylase 3 (fluorogenic substrate deacetylation). The format is biochemical. The settings on record: 0.16 ng/μL HDAC 3, 10 μM substrate; IC50 class.
Source text: as §1
B: Enzyme Activity Detection of Histone Deacetylase 3 (#50003, BPS Bioscience)
as §2, with “3,” for “6,”, “3.” for “6.”, “0.16” for “0.35”, “3, 10” for “6, 20”, “The” for “The reaction system was incubated for 30 min at 37° C., and the”, “detected online at Ex/Em=360/460.” for “then measured.”
as §3

For the next experiment, the system named is HCT-116 cells. The experiment can be described thus: Cell growth inhibition measurement (CCK-8), HCT-116. In kind it is cell-based. The following applies: Homo sapiens, HCT-116, 72 h, highest EC50 measured during one or multiple operations, read-out: Inhibition activity against cancer cells, HCT-116 (EC50).
Source text: as §4, §5, §6, §7, §8, §9, §10, §11, §12, §13

A further experiment addresses HDAC 1 (Homo sapiens, UniProt Q13547). Put plainly: Enzyme activity detection of histone deacetylase 1 (fluorogenic substrate deacetylation). The format is biochemical. The following applies: 0.28 ng/μL HDAC 1, 10 μM substrate; IC50 class.
Source text: as §1
C: Enzyme Activity Detection of Histone Deacetylase 1
as §2, with “1,” for “6,”, “1.” for “6.”, “0.28” for “0.35”, “1, 10” for “6, 20”, “The” for “The reaction system was incubated for 30 min at 37° C., and the”, “detected online at Ex/Em=360/460.” for “then measured.”
as §3

Each structure is given as a SMILES string.

T2 sequence (O15379 whole entry): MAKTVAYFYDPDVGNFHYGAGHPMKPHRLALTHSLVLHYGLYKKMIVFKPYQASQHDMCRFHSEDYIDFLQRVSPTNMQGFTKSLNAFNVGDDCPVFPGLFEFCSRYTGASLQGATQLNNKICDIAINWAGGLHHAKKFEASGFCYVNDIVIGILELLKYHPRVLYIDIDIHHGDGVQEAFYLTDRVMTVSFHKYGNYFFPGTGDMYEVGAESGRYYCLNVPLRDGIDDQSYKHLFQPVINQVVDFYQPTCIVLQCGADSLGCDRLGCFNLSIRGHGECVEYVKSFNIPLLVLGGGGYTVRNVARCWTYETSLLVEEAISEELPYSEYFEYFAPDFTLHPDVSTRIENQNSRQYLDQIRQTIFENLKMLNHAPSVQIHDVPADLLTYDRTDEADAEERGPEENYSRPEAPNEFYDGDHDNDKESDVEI
T2 sequence (Q9Y618 395-489 partner limits assumed): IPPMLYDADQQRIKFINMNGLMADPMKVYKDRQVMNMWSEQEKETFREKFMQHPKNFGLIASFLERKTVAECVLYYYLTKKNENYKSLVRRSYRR
HDAC 1, sequence (Q13547 whole entry, species assumed): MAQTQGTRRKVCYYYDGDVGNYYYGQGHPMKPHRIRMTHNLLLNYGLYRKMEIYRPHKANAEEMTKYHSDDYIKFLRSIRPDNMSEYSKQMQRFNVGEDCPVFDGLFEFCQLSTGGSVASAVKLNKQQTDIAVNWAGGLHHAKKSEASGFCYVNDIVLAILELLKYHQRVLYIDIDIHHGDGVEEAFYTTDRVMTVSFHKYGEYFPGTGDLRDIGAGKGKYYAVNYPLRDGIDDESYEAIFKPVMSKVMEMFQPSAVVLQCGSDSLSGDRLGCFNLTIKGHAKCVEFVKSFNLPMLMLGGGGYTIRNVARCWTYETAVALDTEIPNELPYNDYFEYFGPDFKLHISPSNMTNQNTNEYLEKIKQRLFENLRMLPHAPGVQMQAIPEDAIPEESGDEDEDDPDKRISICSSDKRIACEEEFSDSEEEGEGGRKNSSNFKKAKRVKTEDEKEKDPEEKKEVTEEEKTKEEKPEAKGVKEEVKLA

Broadly, the IC50 is the midpoint of a concentration-inhibition curve. What is called EC50 is the concentration giving half of the maximal effect. As to `O=C(NO)C1=CCN(S(=O)(=O)c2ccc(-c3cnn(C4CCNCC4)c3)cc2)CC1` [Compound 1, N-hydroxyl-1-((4-(1-(piperidine-4-yl)-1H-pyrazol-4-yl)phenyl)sulfonyl)-1,2,3,6-tetrahydropyridine-4-formamide], the IC50 against HDAC 6 was < 100 nM; on HDAC 3, 100 to 500 nM. Besides, the EC50 in the experiment on HepG2 cells was > 100 nM.
For the compound `O=C(NO)C1=CCN(S(=O)(=O)c2ccc(-c3ccc(O)cc3)cc2)CC1` [Compound 2, N-hydroxyl-1-((4′-hydroxyl-[1,1′-biphenyl]-4-yl)sulfonyl)-1,2,3,6-tetrahydropyridine-4-formamide], the IC50 is < 100 nM against HDAC 6 and 100 to 500 nM at HDAC 3. Further, the EC50 in the experiment with HepG2 cells is < 100 nM.
`O=C(NO)C1=CCN(S(=O)(=O)c2ccc(-c3ccc(CN4CCCCC4)cc3)cc2)CC1` [Compound 19, N-hydroxyl-1-((4′-(piperidine-1-ylmethyl)-[1,1′-biphenyl]-4-yl)sulfonyl)-1,2,3,6-tetrahydropyridine-4-formamide]: the IC50 against HDAC 6 and against HDAC 1 was < 100 nM each time. Besides, the EC50 in the experiment on HepG2 cells and in the experiment on HCT-116 cells was < 100 nM each time.
Consider `CN1CCN(c2ccc(-c3ccc(S(=O)(=O)N4CCC=C(C(=O)NO)CC4)cc3)cc2)CC1` [Compound 44, N-hydroxyl-1-((4′-(4-methylpiperazine-1-yl)-[1,1′-biphenyl]-4-yl)sulfonyl)-2,3,6,7-tetrahydro-1H-aza-4-formamide], for which the IC50 against HDAC 6 was < 100 nM; against HDAC 3, 100 to 500 nM; on HDAC 1, 100 to 500 nM. Moreover, in the experiment on HepG2 cells, the EC50 is > 100 nM.
